Melting point data for 110 compounds are collected here from a melting point compilation (Tetko et al.).

By melting point is commonly meant the temperature, or range, at which the solid turns liquid.

`Cc1ccc2nc(C(F)(F)F)cc(Cl)c2c1[N+](=O)[O-]` came in with a melting point of 119 to 121 °C.

Compound `O=Cc1cc2cccnc2s1` showed a melting point of 142 to 143 °C.

In turn, `C=CCC1(C(C)CC)C(=O)NC(=O)NC1=O` (stereo not given) returned a melting point of 109 °C.

With `COC(=O)CCC(C)C1CCC2C3CCC4CCCCC4(C)C3CC(=O)C12C` (stereo not given), the melting point amounted to 109 °C.

The compound `C=CCN(CC=C)C(=O)C(Cl)Cl` came in with a melting point of 5.5 °C.

`CCCCCCC=CCC(=O)O` showed a melting point of 18 °C.

`NC(=S)Cc1ccc(-c2csnn2)cc1` gave a melting point of 169 to 171 °C.

`CCCCOC(=O)C(=O)C1C(C)CC2C3CC(F)C4=CC(=O)C=CC4(C)C3C(O)CC21C` (stereo not given): the melting point was 195 °C.

With `Cc1nc2ccc(-c3ccccc3)cc2s1`, the melting point lay in the range of 90 to 95 °C.

In the case of `CC(=O)OC[C@H]1O[C@@H](OCc2ccccc2)[C@H](OC(C)=O)[C@@H](OC(C)=O)[C@@H]1OC(C)=O`, the melting point was 96 to 100 °C.

With `CC(C)(C)OC(=O)NC1CCNC1` (stereo not given), the melting point came to 67 °C.

On to `CC(C)CC=CC(C(=O)O)C1=CCC2(C)C(CCC3C4CCC(O)C4(C)CCC32)C1` (stereo not given), for which the melting point stood at 200 °C.

Compound `CC(=NO)c1ccccn1` gave a melting point of 117 to 119 °C.

Compound `CC(O)CC(C)O` (stereo not given) returned a melting point of 50 to 52 °C.

The compound `CC(=O)Nc1cccc(N)c1` returned a melting point of 84 to 88 °C.

In the case of `N#C/C(=C\c1cccs1)c1nc(-c2cccc3ccccc23)cs1`, the melting point is 205 to 207 °C.

On to `CCCCNC(=O)OC#CCI`, for which the melting point was found to be 66 °C.

With `Brc1cccc2c1Oc1ccccc1O2`, the melting point was 104 °C.

`O=C1C(c2ccc(Br)cc2)=C(O)c2ccccc21` registered a melting point of 137 to 138 °C.

`CCCCCCCCCC(=O)OC(=O)CCCCCCCCC` had a melting point of 24.7 °C.

In turn, `CC12CC(O)C3C(CCC4(O)CC(O)CC(O)C34CO)C1(O)CCC2C1=CC(=O)OC1` (stereo not given) had a melting point of 236 °C.

In turn, `Cc1ccc2ncccc2c1` returned a melting point of -22 °C.

Take `COc1ccccc1-c1ccc(/C=C2\N=C(c3ccccc3)OC2=O)o1`: the melting point came to 170 °C.

For the compound `O=C1C(Cl)=C(Cl)C(=O)N1c1ccc(F)cc1`, the melting point amounted to 241 °C.

Consider `C=CCc1ccc(O)cc1`, for which the melting point came to 15.8 °C.

`OCC(F)(F)C(F)(F)C(F)(F)C(F)(F)C(F)(F)C(F)(F)C(F)(F)F` yielded a melting point of 43 to 47 °C.

`COCCCn1c(C(=O)O)cc2c(=O)n(C)c(=O)n(C)c21` returned a melting point of 166 °C.

As for `COP(=S)(OC)Oc1ccc([N+](=O)[O-])c(Cl)c1`, the melting point was 21 °C.

For `N#CC(C(=O)OCc1ccccc1)c1cc(C(F)(F)F)ccc1[N+](=O)[O-]` (stereo not given), the melting point stood at 71 °C.

`CC(C)(C)c1cc(C(=O)NN)n(Cc2ccc(F)cc2)n1` returned a melting point of 183 to 185 °C.

`O=C(CBr)Nc1ccccc1C(=O)c1ccccc1` showed a melting point of 94 to 95 °C.

`CCN(CC)CCOC(=O)C(c1ccccc1)c1ccccc1` showed a melting point of 114 °C.

Turning to `O=C1CN(C(=O)OCc2ccccc2)CCN1`, the melting point amounted to 120 °C.

In the case of `COc1cc(C)c(C(O)C#N)cc1OC` (stereo not given), the melting point turned out to be 80 °C.

`CC(=O)Nc1c(Br)cc(Br)cc1C(=O)c1ccccc1` returned a melting point of 156 °C.

Take `N#CCCCCCCCCC#N`: the melting point worked out at 7 °C.

For the compound `Cc1nc(-c2ccc(CO)s2)cs1`, the melting point was 67 to 69 °C.

Regarding `COc1ccc(C=Nn2c(C)cc(C)c(C#N)c2=O)cc1`, the melting point fell in the range of 249 to 250 °C.

Turning to `CCN(CC)C(=O)c1cccnc1`, the melting point was found to be 25 °C.

As to `C[Si](C)(C)C#Cc1cccc(C#C[Si](C)(C)C)c1`, the melting point was found to be 58 °C.

Regarding `Fc1cccc(-n2cc[nH]c2=S)c1`, the melting point was in the range of 162 to 164 °C.

Compound `O=C1/C(=C/c2ccccc2O)SC(=S)N1CN1CCCCC1` had a melting point of 166 °C.

For `CC1(C)CC(C(=O)Oc2ccc([N+](=O)[O-])cc2)C(C)(C)N1O` (stereo not given), the melting point lay within 77 to 80 °C.

`CN1CC[C@@H](c2ccc(F)cc2)[C@H](CO)C1` displayed a melting point of 97 to 101 °C.

Take `Oc1ccc(OCc2ccccc2)cc1`: the melting point amounted to 122 °C.

As for `CN1C(=O)CN=C(c2ccccc2)c2cc([N+](=O)[O-])ccc21`, the melting point came to 157 °C.

The compound `CC1C2CCC3C4CC=C5CC(N(C)C)CCC5(C)C4CCC32CN1C` (stereo not given) gave a melting point of 126 °C.

In turn, `COc1ccc(N)cc1OC` registered a melting point of 88 °C.

Regarding `Clc1cncc(Br)c1`, the melting point stood at 80 °C.

`OCc1cccc(Cl)c1Cl` returned a melting point of 88 to 94 °C.

The compound `NNc1ccccc1C(F)(F)F` registered a melting point of 60 °C.

In turn, `Cc1cc(Br)cc(Br)c1O` returned a melting point of 58 °C.

On to `CC(C)CCCC(C)C1CCC2C3CC(=O)C4(O)CC(=O)CCC4(C)C3CCC12C` (stereo not given), for which the melting point was found to be 222 °C.

In turn, `CCOc1ccccc1C(C)=O` gave a melting point of 40 °C.

`O=Cc1ccc(-n2ccnc2)cc1` yielded a melting point of 142 to 145 °C.

`Oc1c(Cl)c(Cl)cc(Cl)c1Cl` gave a melting point of 115 °C.

Consider `CC1(C)CCC(=O)CC1=O`, for which the melting point was in the range of 103 to 105 °C.

In the case of `COc1ccc(-c2coc3cc(O)ccc3c2=O)cc1`, the melting point was determined as 256 °C.

Take `Cc1cc(=O)[nH]c2c(/N=N/c3ccc(O)cc3)c(N)nn12`: the melting point stood at 285 °C.

Take `Cc1n[nH]c2c1c(=O)n(-c1ccccc1)c1ccccc21`: the melting point was in the range of 162 to 163 °C.

Take `Cc1ccc(C(=O)C2=NOC3C(=O)N(c4cc(Cl)ccc4Cl)C(=O)C23)cc1` (stereo not given): the melting point came to 191 °C.

In turn, `CC(=O)N=c1c(-c2ccccc2)cc2cc3cc(-c4ccccc4)c(=NC(C)=O)n(C(C)=O)c3cc2n1C(C)=O` displayed a melting point of 238 to 240 °C.

The compound `CCCC(=O)Oc1c[nH]c2cc(Cl)c(Br)cc12` had a melting point of 96 to 100 °C.

In the case of `COc1ccc2cnc(C)cc2c1`, the melting point stood at 115 °C.

As for `CCCCCCN(CCCCCC)C1=NC(=Cc2ccccc2)C(=O)N1c1ccccc1`, the melting point is 76 °C.

As for `CN(C)CCC(O)(c1ccccc1)c1ccccc1Cl` (stereo not given), the melting point stood at 120 °C.

In turn, `O=Cc1cc(Cl)c(O)c(Cl)c1` came in with a melting point of 154 to 156 °C.

Compound `COC(=O)C1(C(=O)OC)Cc2ccccc2C(=O)O1` had a melting point of 113 °C.

Take `Cc1ccc([N+](=O)[O-])c2ccccc12`: the melting point worked out at 71.5 °C.

For `CC(C)CCOC(=O)C(=O)OCCC(C)C`, the melting point was -9 °C.

`O=C1c2ccccc2C(=O)N1c1n[nH]c2ccccc12`: the melting point lay in the range of 239 to 241 °C.

On to `O=P(O)(OCc1ccccc1)OCc1ccccc1`, for which the melting point amounted to 80 °C.

`CC(=O)Nc1ccc(Br)c(C(=O)O)c1`: the melting point lay in the range of 186 to 188 °C.

Compound `CCOC(=O)c1[nH]cnc1C` came in with a melting point of 204 to 206 °C.

On to `CSc1ccc(O)cc1`, for which the melting point turned out to be 86 °C.

In the case of `CC1(C)CON(Cc2ccccc2Cl)C1=O`, the melting point turned out to be 33.9 °C.

Take `O=[N+]([O-])c1cccc(-c2nnc3n2CN(c2ccccc2[N+](=O)[O-])CS3)c1`: the melting point came to 183 °C.

Take `CCCc1ccccn1`: the melting point was determined as 2 °C.

`O=C(O)c1ccc(OC2CCOCC2)nc1` yielded a melting point of 168 to 170 °C.

Compound `CC(=O)NC(=Cc1ccccc1)C(=O)O` registered a melting point of 192 °C.

Take `CCOC(=O)c1cc(C)[nH]c(=S)c1C#N`: the melting point was 214 °C.

For `Cc1[nH]c(=O)n(C(C)C)c(=O)c1Br`, the melting point stood at 158 °C.

`C=C[Si](OCCOC)(OCCOC)OCCOC` displayed a melting point of -30 °C.

For the compound `Cc1ccc(S(=O)(=O)Nc2cc(N)c([N+](=O)[O-])cc2NS(=O)(=O)c2ccc(C)cc2)cc1`, the melting point was 165 °C.

Turning to `CCOP(=O)(OCC)OC(=CCl)c1ccc(Cl)cc1Cl`, the melting point is -20 °C.

As to `COC(=O)CC(C)CCC1C(C)(O)CCC2C(C)(C)CCCC21C` (stereo not given), the melting point fell in the range of 68.3 to 71.3 °C.

`Cn1c(CN)nc2ccccc21` gave a melting point of 261 to 263 °C.

Compound `CC(=O)Nc1ccsc1C(=O)O` gave a melting point of 200 to 202 °C.

`O=C(O)CC(C(=O)O)C(CC(=O)O)C(=O)O` (stereo not given) had a melting point of 195 to 197 °C.

Compound `Nc1ccc(OC(F)(F)F)cc1[N+](=O)[O-]` returned a melting point of 62 to 64 °C.

On to `O=C(CBr)c1ccc(Cl)c(Cl)c1`, for which the melting point is 57 °C.

Turning to `CCC(C)/N=C(\C)c1c(O)c2ccccc2n(-c2ccccc2)c1=O` (stereo not given), the melting point fell in the range of 193 to 194 °C.

As for `CCNc1c(C=O)c(=O)oc2ccccc12`, the melting point was determined as 181 °C.

For `O=C(O)C1COc2ccccc2O1` (stereo not given), the melting point was in the range of 125 to 128 °C.

Compound `ON(Cc1ccccc1)Cc1ccccc1` displayed a melting point of 123 °C.

Regarding `CCNC(=O)COC(=O)c1ccccc1`, the melting point is 106 °C.

Consider `O=CC=CC=Cc1ccccc1`, for which the melting point was determined as 42.5 °C.

On to `O=[N+]([O-])c1cc(CO)ccc1O`, for which the melting point is 94 to 98 °C.

For the compound `CCOc1ccc(NC(N)=O)cc1`, the melting point stood at 173 °C.

`CCCCc1cc2ccccc2c(OCCN(C)C)n1` registered a melting point of 146 °C.

For `CC(C)(C)[C@H]1CC[C@H](C(=O)O)CC1`, the melting point is 170 to 175 °C.

As for `CC(=O)Cc1ccccc1C(=O)OCC(=O)N(C)CCO`, the melting point is 70.5 °C.

Consider `Nc1c(F)cc(F)cc1F`, for which the melting point turned out to be 35 °C.

For the compound `OCCCCCCC(F)(F)C(F)(F)C(F)(F)C(F)(F)C(F)(F)C(F)(F)C(F)(F)C(F)(F)F`, the melting point worked out at 56 °C.

For `O=S(=O)(O)c1ccc2cc(O)ccc2c1`, the melting point amounted to 125 °C.

As for `Cc1cc(O)c(C(=O)c2ccccc2)cc1Cl`, the melting point is 138 to 142 °C.

Regarding `CCC1=[N+]([O-])C(C)(C)N(C)C1(C)C`, the melting point lay in the range of 32 to 34 °C.

For `COc1ccc(-c2nn3c(C)nnc3s2)cc1`, the melting point amounted to 177 °C.

Compound `NC(=S)c1cccc(Cl)c1` returned a melting point of 110 to 113 °C.

For `CCOc1ccccc1NC(C)=O`, the melting point is 79 °C.
